{"source": "patent US8163703B2", "about": "“Hepatitis C therapies” (BioCryst Pharmaceuticals, Inc., priority 2005, dated 2012)", "origin": "cited, not measured here", "tested_on": "HCV", "conditions": "ribavirin alone", "data": [{"smiles": "NC(=O)c1ncn([C@@H]2O[C@H](CO)[C@@H](O)[C@H]2O)n1", "note": "[Ribavirin, 1-β-D-ribofuranosyl-1-1,2,4-triazole-3-carboxamide]", "values": [{"measurement": "patients in whom serum amino transferase levels are reduced to normal", "result": 40, "unit": "%"}]}]}
